Source: US12275707B2, “Modulators of mas-related g-protein receptor X2 and related products and methods” (Escient Pharmaceuticals, Inc., priority 2020, dated 2025)

target: T1, human MRGPR X2 (Homo sapiens, UniProt Q96LB1); experiment: MRGPR X2 activity, IP-One Gq HTRF antagonist assay versus 0.3 μM Cortistatin-14; type: cell-based; conditions: CHO cells expressing human MRGPR X2; versus 0.3 μM Cortistatin-14 agonist; IP-1 HTRF; read-out: MRGPRX2 Antagonist Activity
T1 construct: expressed in transfected cells
T1 sequence (Q96LB1 1-330): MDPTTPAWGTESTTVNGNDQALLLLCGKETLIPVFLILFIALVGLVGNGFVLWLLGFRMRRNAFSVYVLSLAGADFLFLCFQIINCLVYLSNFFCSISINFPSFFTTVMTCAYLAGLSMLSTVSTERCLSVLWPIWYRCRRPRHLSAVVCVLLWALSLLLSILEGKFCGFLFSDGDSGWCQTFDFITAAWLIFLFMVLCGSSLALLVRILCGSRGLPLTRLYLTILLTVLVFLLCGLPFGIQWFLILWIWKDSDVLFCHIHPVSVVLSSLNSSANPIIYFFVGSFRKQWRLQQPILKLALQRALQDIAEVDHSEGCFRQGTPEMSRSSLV
Experimental: CHO cells stably transfected to express human MRGPR X2 were maintained in an incubator at 37° C. with 5% CO2 and grown in F12 (HAM) media with 10% fetal bovine serum (FBS), 1% Glutamax, 1% penicillin/streptomycin, 800 μg/mL Geneticin (G418), and 300 μg/mL Hygromycin B.
Cells were plated in a 384-well assay plate at 20,000 cells per well in 12 μL of Opti-MEM and kept in an incubator overnight. On the day of the assay, compounds solubilized at 10 mM in DMSO were added as a 10-point curve (30 μM final top concentration with 1:3 serial dilutions) using a Tecan D300E digital dispenser. Agonists were diluted in assay buffer (final concentrations of 5.7 mM Tris-HCl, 43 mM NaCl, 50 mM LiCl, pH=8) and 2 μL of the agonist Cortistatin-14 (CPC Scientific, catalog CORT-002) are added to each well. Final concentrations of agonists were 0.3 μM Cortistatin. Final concentrations of DMSO were kept consistent across the plate. Plates were incubated in the dark for 1 h at 37° C. and then for 1 h at room temperature. IP-1 standards and HTRF detection reagents were added according to the IP-One—Gq Kit purchased from Cisbio (part number 62IPAPEJ) and incubated in the dark for 1 h at room temperature. The plate was read on a Molecular Devices SpectraMax iD5 plate reader. The HTRF ratio was calculated from the raw data and graphed using GraphPad Prism to calculate an IC50 value for each compound.
The activity ranges are denoted as follows: “+++++” denotes antagonist activity<100 nM; “++++” denotes antagonist activity between 100 and 500 nM; “+++” denotes activity between 501 and 1000 nM; “++” denotes activity between 1001 and 2500 nM; and “+” denotes activity>2500 nM

Structure (SMILES) | IC50 [nM]
CN(C)c1ccc(C(=O)N[C@@H]2CCC[C@H](Nc3cc(C(F)(F)F)nc4ccc(F)cc34)C2)cc1 [Example 4-421] | < 100
O=C(N[C@@H]1CCC[C@H](Nc2cc(C(F)(F)F)nc3ccc(Cl)cc23)C1)c1ccc(F)nc1 [Example 4-411] | < 100
Nc1ncc(C(=O)N[C@@H]2CCC[C@H](Nc3cc(C(F)(F)F)nc4ccc(Cl)cc34)C2)cn1 [Example 15, 2-amino-N-[(1R,3S)-3-{[6-chloro-2-(trifluoromethyl)quinolin-4-yl]amino}cyclohexyl]pyrimidine-5-carboxamide] | < 100
O=C(N[C@@H]1CCC[C@H](Nc2nc(C(F)(F)F)nc3ccccc23)C1)c1ccc(F)cc1 [Example 3, 4-fluoro-N-[(1R,3S)-3-[[2-(trifluoromethyl)quinazolin-4-yl]amino]cyclohexyl]benzamide] | 501 to 1000
O=C(N[C@@H]1CCC[C@H](Nc2cc(C(F)(F)F)nc3ccc(Cl)cc23)C1)c1cccc(F)c1 [Example 4-239] | 100 to 500
O=C(N[C@@H]1CCC[C@H](Nc2cc(C(F)(F)F)nc3ccc(Cl)cc23)C1)c1cnc(NCCF)nc1 [Example 4-423] | < 100
O=C(N[C@@H]1CCC[C@H](Nc2cc(C(F)(F)F)nc3ccccc23)C1)C1(c2cnccn2)CC1 (racemic) [Example 4-29] | 1000 to 2500
O=C(N[C@@H]1CCC[C@H](Nc2cc(C(F)(F)F)nc3ccc(Cl)cc23)C1)c1cnn(C(F)F)c1 [Example 4-399] | < 100
O=C(CN1C(=O)COc2ccccc21)N[C@@H]1CCC[C@H](Nc2cc(C(F)(F)F)nc3ccccc23)C1 (racemic) [Example 4-100] | 1000 to 2500
CCS(=O)(=O)Nc1cccc(C(=O)N[C@@H]2CCC[C@H](Nc3cc(C(F)(F)F)nc4ccc(Cl)cc34)C2)c1 [Example 4-241] | < 100
COc1ccc(C(=O)N[C@@H]2CCC[C@H](Nc3cc(C(F)(F)F)nc4ccc(Cl)cc34)C2)cc1 [Example 1, N-((1R,3S)-3-((6-chloro-2-(trifluoromethyl)quinolin-4-yl)amino)cyclohexyl)-4-methoxybenzamide] | < 100
COc1ccc(COc2cc(C(=O)N[C@@H]3CCC[C@H](Nc4cc(C(F)(F)F)nc5ccccc45)C3)on2)cc1 (racemic) [Example 4-35] | 1000 to 2500
CN(C)c1ncc(C(=O)N[C@@H]2CCC[C@H](Nc3cc(C(F)(F)F)nc4ccc(Cl)cc34)C2)s1 [Example 4-422] | < 100
N#CCCn1ncc(C(=O)N[C@@H]2CCC[C@H](Nc3cc(C(F)(F)F)nc4ccc(Cl)cc34)C2)c1Cl [Example 4-420] | < 100
O=C(N[C@@H]1CCC[C@H](Nc2cc(C(F)(F)F)nc3ccc(Cl)cc23)C1)c1ccn(CCF)c1 [Example 19, N-((1R,3S)-3-((6-chloro-2-(trifluoromethyl)quinolin-4-yl)amino)cyclohexyl)-1-(2-fluoroethyl)-1H-pyrrole-3-carboxamide] | < 100

Second part, the compound after the results:

IC50 [nM] | Structure (SMILES)
1000 to 2500 | O=C(N[C@@H]1CCC[C@H](Nc2cc(C(F)(F)F)nc3ccccc23)C1)c1cccc(N2CCCC2=O)c1 [Example 4-172]
1000 to 2500 | N#CC1(C(=O)N[C@@H]2CCC[C@H](Nc3cc(C(F)(F)F)nc4ccccc34)C2)CC1 [Example 4-183]
1000 to 2500 | CCCc1nnsc1C(=O)N[C@@H]1CCC[C@H](Nc2cc(C(F)(F)F)nc3ccccc23)C1 (racemic) [Example 4-40]
100 to 500 | O=C(N[C@@H]1CCC[C@H](Nc2cc(C(F)(F)F)nc3ccccc23)C1)c1ccc(F)cc1 [Example 1-8]
1000 to 2500 | CC(C)Cc1cc(C(=O)N[C@@H]2CCC[C@H](Nc3cc(C(F)(F)F)nc4ccccc34)C2)n(C)n1 (racemic) [Example 4-90]
100 to 500 | N#Cc1ccccc1C(=O)N[C@@H]1CCC[C@H](Nc2cc(C(F)(F)F)nc3ccccc23)C1 [Example 3-6]
1000 to 2500 | Cc1nc(N(C)C)ccc1C(=O)N[C@@H]1CCC[C@H](Nc2cc(C(F)(F)F)nc3ccccc23)C1 [Example 4-22]
< 100 | O=C(N[C@@H]1CCC[C@H](Nc2cc(C(F)(F)F)nc3ccc(Cl)cc23)C1)c1ccsn1 [Example 4-425]

tested on: Human LAD2 cells; experiment: Mast Cell Beta-Hexosaminidase Release Assay (500 nM Cortistatin-14); type: cell-based; conditions: read-out: MRGPRX2 Antagonist Activity
Experimental: Human LAD2 cells (NIH) were maintained in an incubator at 37° C. with 5% CO2 and cultured in StemPro-34 serum-free media (Gibco 10639011) supplemented with 2 mM L-glutamine, 100 U/ml penicillin, […] streptomycin and 100 ng/ml SCF (Invitrogen PEP0860), at a concentration of 2-5×10^5 cells/mL, with hemidepletion every 1-2 weeks.
Cells were transferred to SCF-Free medium at 2.5×10^5 cells/mL and kept in an incubator overnight. On the day of the assay, cells were washed twice in Assay Buffer (final concentrations 10 mM HEPES, 137 mM NaCl, 5.6 mM D-glucose, 2.7 mM KCl, 1 mM MgCl, 1.8 mM CalCl2, 0.4 mM Na2HPO4·7H2O, 0.04% BSA, pH=7.4) and plated in a 96-well v-bottom plate at 20,000 cells per well in 80 μL Assay Buffer. […] After incubation, 50 μL of 400 mM Glycine buffer (pH 10.7) was added into each well and the plate was read on a Molecular Devices SpectraMax iD5 plate reader (absorbance at 405 nm with reference filter at 620 nm). After background subtraction, the percentage degranulation (percent beta-hexosaminidase release) was calculated as 100×(supernatant values)/(supernatant+lysate values), followed by analysis using GraphPad Prism software to calculate an IC50 value for each compound. […]

IC50 [nM] | Structure (SMILES)
< 100 | N#CCCn1ncc(C(=O)N[C@@H]2CCC[C@H](Nc3cc(C(F)(F)F)nc4ccc(Cl)cc34)C2)c1Cl [Example 4-420]

tested on: not listed separately; experiment: Mouse Pharmacokinetics Studies; type: in vivo; conditions: male, C57BL/6, mouse, plasma, po, 50 mg/kg, male C57BL/6 mice, 50 mg/kg oral gavage, non-fasted, read-out: AUC 0-24
Experimental: Compounds were formulated in 5% DMSO, 5% Solutol, and 90% PBS without Ca and Mg (pH 7.4) at a concentration of 5 mg/mL. Male C57BL/6 mice (n=3/compound) were administered a 50 mg/kg dose of each compound by oral gavage under a non-fasted condition. Blood samples were collected via the saphenous vein onto K2-EDTA at 0.25, 0.5, 1, 2, 4, 8 and 24 hours after dosing, and plasma was prepared and stored at −80° C. until analysis. Plasma sample preparation for analysis was done by protein precipitation using acetonitrile (including Verapamil as an internal standard) followed by centrifugation. Compound concentrations were determined in extracted plasma using LC-MS/MS relative to a 12 point standard curve covering the 1 to 4000 nM range. Non-compartmental analysis using Phoenix WinNonlin was used to estimate pharmacokinetic parameters including area under the curve, clearance, and half-life. The administered dose was confirmed by analysis of residual dosing material by UPLC-UV relative to a single point calibration sample.

AUC(0-t) [µM·h] | Structure (SMILES)
43 | O=C(N[C@@H]1CCC[C@H](Nc2cc(C(F)(F)F)nc3ccc(Cl)cc23)C1)N1CC2(CC2)C1 [Example 6-9]

same assay, conditions: male, C57BL/6, mouse, plasma, po, 50 mg/kg, male C57BL/6 mice, 50 mg/kg oral gavage, non-fasted, read-out: AUC 0-last

AUC(0-t) [µM·h] | Structure (SMILES)
42 | O=C(N[C@@H]1CCC[C@H](Nc2cc(C(F)(F)F)nc3ccc(Cl)cc23)C1)N1CC2(CC2)C1 [Example 6-9]

same assay, conditions: mouse; male C57BL/6 mice, 50 mg/kg oral gavage, non-fasted, plasma

Cmax [µM] | Structure (SMILES)
5.1 | O=C(N[C@@H]1CCC[C@H](Nc2cc(C(F)(F)F)nc3ccc(Cl)cc23)C1)N1CC2(CC2)C1 [Example 6-9]

same assay, conditions: mouse; male C57BL/6 mice, 50 mg/kg oral gavage, non-fasted, plasma; read-out: PK: Tmax

Tmax [h] | Structure (SMILES)
3.3 | O=C(N[C@@H]1CCC[C@H](Nc2cc(C(F)(F)F)nc3ccc(Cl)cc23)C1)N1CC2(CC2)C1 [Example 6-9]
